Results published in patent publication US20240092782A1, “TRICYCLIC PESTICIDAL COMPOUNDS” (BASF SE, priority 2021, published 2024).

Experiments:
Type in all cases: in vivo
[1] = system: Red Spider Mite (Tetranychus kanzawai); experiment: Red spider mite (Tetranychus kanzawai) mortality on sprayed cowpea beans; conditions: 72 hours after treatment, read-out: mortality in comparison with untreated controls
Protocol: Red Spider Mite (Tetranychus kanzawai)
The active compound of formula ( ))s dissolved at the desired concentration in a mixture of 1:1 (vol:vol) distilled water:acetone. Add surfactant (Kinetic) is added at a rate of 0.01% (vol/vol).The test solution is prepared at the day of use. Potted cowpea beans of 4-5 days of age are cleaned with tap water and sprayed with 1-2 ml of the test solution using air driven DeVilbiss® hand atomizer at 20-30 psi (≈1.38 to 2.07 bar). The treated plants are allowed to air dry and afterwards inoculated with 30 or more mites by clipping a cassava leaf section from rearing population. Treated plants are placed inside a holding room at about 25-26° C. and about 65-70% relative humidity. Estimate percent mortality is assessed 72 hours after treatment.

[2] = system: boll weevil (Anthonomus grandis); experiment: Boll weevil (Anthonomus grandis) egg and larval mortality, insect diet microtiter plate; conditions: 120 h, egg and larval mortality after 5 days, read-out: mortality in comparison with untreated controls
Protocol: Boll Weevil (Anthonomus grandis)
For evaluating control of boll weevil (Anthonomus grandis) the test unit consisted of 96-well-microtiter plates containing an insect diet and 5-10 A. grandis eggs. The compounds were formulated using a solution containing 75% v/v water and 25% v/v DMSO. Different concentrations of formulated compounds were sprayed onto the insect diet at 5 μl, using a custom built micro atomizer, at two replications. After application, microtiter plates were incubated at about 25±1° C. and about 75±5% relative humidity for 5 days. Egg and larval mortality was then visually assessed.

[3] = system: Green Peach Aphid (Myzus persicae); experiment: whole plant or invertebrate; conditions: 120 h, aphid mortality after 5 days, read-out: mortality in comparison with untreated controls
Protocol: Green Peach Aphid (Myzus persicae)
The 10,000 ppm solution was serially diluted in 100% cyclohexanone to make interim solutions. These served as stock solutions for which final dilutions were made by the Tecan in 50% acetone:50% water (v/v) into 10 or 20 ml glass vials. A nonionic surfactant (Kinetic®) was included in the solution at a volume of 0.01% (v/v). The vials were then inserted into an automated electrostatic sprayer equipped with an atomizing nozzle for application to plants/insects. Bell pepper plants at the first true-leaf stage were infested prior to treatment by placing heavily infested leaves from the main colony on top of the treatment plants. Aphids were allowed to transfer overnight to accomplish an infestation of 30-50 aphids per plant and the host leaves were removed. The infested plants were then sprayed by an automated electrostatic plant sprayer equipped with an atomizing spray nozzle. The plants were dried in the sprayer fume hood, removed, and then maintained in a growth room under fluorescent lighting in a 14:10 light:dark photoperiod at about 25° C. and about 20-40% relative humidity. Aphid mortality on the treated plants, relative to mortality on untreated control plants, was determined after 5 days.

[4] = system: tobacco budworm (Heliothis virescens); experiment: whole plant or invertebrate; conditions: 120 h, egg and larval mortality after 5 days, read-out: mortality in comparison with untreated controls
Protocol: Tobacco Budworm (Heliothis virescens)
For evaluating control of tobacco budworm (Heliothis virescens) the test unit consisted of 96-well-microtiter plates containing an insect diet and 15-25 H. virescens eggs. The compounds were formulated using a solution containing 75% v/v water and 25% v/v DMSO. Different concentrations of formulated compounds were sprayed onto the insect diet at 10 μl, using a custom built micro atomizer, at two replications. After application, microtiter plates were incubated at about 28±1° C. and about 80±5% relative humidity for 5 days. Egg and larval mortality was then visually assessed.

[5] = system: yellow fever mosquito (Aedes aegypti); experiment: whole plant or invertebrate; conditions: 48 h, larval mortality after 2 days, read-out: mortality in comparison with untreated controls
Protocol: Yellow Fever Mosquito (Aedes aegypti)
For evaluating control of yellow fever mosquito (Aedes aegypti) the test unit consisted of 96-well-microtiter plates containing 200 μl of tap water per well and 5-15 freshly hatched A. aegypti larvae. The active compounds were formulated using a solution containing 75% (v/v) water and 25% (v/v) DMSO. Different concentrations of formulated compounds or mixtures were sprayed onto the insect diet at 2.5 μl, using a custom built micro atomizer, at two replications. After application, microtiter plates were incubated at 28+1° C., 80+5% RH for 2 days. Larval mortality was then visually assessed.

CCS(=O)(=O)c1cc(N=S(C)(C)=O)cnc1-c1cn2c(cc(C(F)(F)F)n3ccnc32)n1 [I.24, [5-ethylsulfonyl-6-[7-(trifluoromethyl)-1,3,6,10-tetrazatricyclo[7.3.0.02,6]dodeca-2,4,7,9,11-pentaen-11-yl]-3-pyridyl]imino-dimethyl-oxo-λ6-sulfane]
> 70%: mortality at 800 ppm [1] | mortality at 800 ppm [2]

CCS(=O)(=O)c1cc(Br)cnc1-c1nc2cc(C(F)(F)F)n3ncnc3c2n1C [I.2, 8-(5-bromo-3-(ethylsulfonyl)pyridin-2-yl)-9-methyl-5-(trifluoromethyl)-9H-imidazo[4,5-c][1,2,4]triazolo[1,5-a]pyridine]
> 70%: mortality at 10 ppm ([3]; 10 ppm) | mortality at 10 ppm ([4]; 10 ppm) | mortality at 10 ppm ([1]; 10 ppm) | mortality at 30 ppm ([2]; 30 ppm) | mortality at 10 ppm ([5]; 10 ppm)

CCS(=O)(=O)c1cc(Br)ccc1-c1nc2cc(C(F)(F)F)n3ncnc3c2n1C [I.8, 11-(4-bromo-2-ethylsulfonyl-phenyl)-12-methyl-7-(trifluoromethyl)-3,5,6,10,12-pentazatricyclo[7.3.0.02,6]dodeca-1(9),2,4,7,10-pentaene]
> 70%: mortality at 800 ppm ([3]; 800 ppm) | mortality at 800 ppm ([4]; 800 ppm) | mortality at 800 ppm [1] | mortality at 800 ppm [2] | mortality at 800 ppm ([5]; 800 ppm)
